Test results reported in US20170304460A1, “METHOD OF CONJUGATING A POLYPEPTIDE” (MedImmune, LLC, priority 2014, published 2017).
Like-named read-outs stand apart in the source and are kept apart here.

Tests used:
[1] = cited from earlier work
[2] = Stability of mAb-biotin conjugates in the presence of free thiol (BME) after mild hydrolysis; format: physicochemical; conditions: pH 7.2, 37° C.
Procedure: Biotin-mAb conjugates were incubated in aqueous buffer containing β-mercaptoethanol (BME) to challenge the thiosuccinimide linkage against deconjugation. In this experiment, thiosuccinimide conjugates were subjected to a brief incubation at mildly basic conditions to facilitate thiosuccinimide hydrolysis before the stability challenge. x-Maleimide-PEG-biotins were conjugated to mAb containing the T289C mutation as described above with minor modification. Conjugation reactions were performed at 1 equivalent x-PEG-maleimide:thiol for 15 min at 22° C. followed quenching with N-acetyl cysteine (100 eq rel. to mAb) and further reaction for 5 minutes. Reaction mixtures were adjusted to pH 8.6 by addition of 10% v/v sodium phosphate (1M, dibasic) and then incubated at 37° C. for 1 hr. Reactions were then dialyzed against PBS (pH 7.2) containing 0.5 mM EDTA for 24 hr at 4° C. After dialysis, mAb concentrations were confirmed by A280 measurement (NanoDrop) and samples were diluted to 0.2 mg/mL (1.33 μM mAb) with 1×PBS pH 7.2 containing 0.5 mM EDTA. For BME-containing samples, BME was added to a final concentration of 1% v/v (143 mM). […] Aliquots were removed at various time points, sterile filtered, reduced with DTT and then analyzed by LC/MS. Percent conjugated mAb and thiosuccinimide hydrolysis was determined from peak heights of mass spectra using Equation 1 and Equation 2, respectively. […]

[3] = BME challenge assay: sensitivity of PEG-biotin T289C mAb conjugates to thiol exchange in buffer containing thiols; format: physicochemical; conditions: pH 7.2, 37° C.
Procedure: Biotin-mAb conjugates were incubated in aqueous buffer containing β-mercaptoethanol (BME) to challenge the thiosuccinimide linkage against deconjugation. x-Maleimide-PEG-biotins were conjugated to mAb containing the T289C mutation as described above with minor modification. Conjugation reactions were performed at 1 equivalent x-PEG-maleimide:thiol for 15 min at 22° C. followed immediately by dilution to 0.2 mg/mL (1.33 μM mAb) with 1×PBS pH 7.2 containing 0.5 mM EDTA. The N-acetyl cysteine quenching step was omitted. For BME-containing samples, BME was added to a final concentration of 1% v/v (143 mM). Samples were further incubated at 37° C. under ambient atmosphere without stirring. Aliquots were removed at various time points, sterile filtered, reduced with DTT and then analyzed by LC/MS. Percent conjugated mAb and thiosuccinimide hydrolysis were determined from peak heights of mass spectra using Equation 1 and Equation 2, respectively. Deconjugated mAb and thiosuccinimide hydrolysis data were plotted as ln [concentration] vs. time (s) to obtain the pseudo-first order rate constants from the slope of the bestfit line.

[4] = Maleimide hydrolysis kinetics (pre-incubation in buffer, then reaction with T289C mAb); format: physicochemical; conditions: for half-life at 1 mM: sodium phosphate buffer, read-out: Hydrolysis T1/2 (maleimide) (converted)
Procedure: x-Maleimide-PEG-biotins were pre-incubated in buffer solutions of different pH to assess their stability and thiol conjugation efficiency over time. This assay indirectly monitors maleimide hydrolysis because hydrolyzed maleimides are not reactive towards thiols. Antibody bearing the T289C FC mutation was reduced and oxidized as described above and adjusted to 1.5 mg/mL in PBS containing 50 mM sodium phosphate pH 7.4. Maleimide solutions were prepared in buffer (100 mM sodium phosphate pH 5.5, 7.4, 8.6) by combining 20 μL x-maleimide-PEG-biotin solution (10 mM solution in DMAc) with 180 μL buffer at the desired pH (final x-maleimide-PEG-biotin concentration=1 mM) and incubated at 22° C. for determined time intervals prior to reaction with mAb. For conjugation reactions 267 μL mAb (1.5 mg/mL, 2.7 nmol, 1 eq) was combined with 5.3 μL buffer-incubated x-maleimide-PEG-biotin solution (5.4 nmol, 2 eq). […] The conjugation reaction proceeded at 22° C. for 1.5 hr at pH 7.4. After reaction samples were reduced with DTT at room temperature for 5 min and analyzed by mass spectrometry. Percent conjugation was calculated using equation 1.
Maleimide hydrolysis data were also analyzed in units of molar concentration to determine kinetic constants. Pseudo 1st order rate constants were determined from the slopes of curves generated from plotting ln [maleimide] versus time and linear regression analysis.

T289C mAb = assay: Conjugation kinetics of x-maleimide-PEG-biotins with T289C mAb; format: physicochemical; conditions: for Second order rate constant (k2): conjugation to T289C mAb
Procedure: x-Maleimide-PEG-biotins were conjugated to mAb (comprising a T289C mutation of the Fc) in several steps. […] Reduced mAb was transferred to a slide-a-lizer dialysis cassette (10K MWCO) and dialyzed against PBS, 1 mM EDTA, pH 7.2-7.8, 4° C. for 24 hr with several buffer changes. Reduced mAb was oxidized to reform internal disulfides by addition of dehydroascorbic acid (21 μL of 50 mM stock in DMSO, 1.1 μmol, 20 eq) followed by gentle mixing for 4 hr at room temperature. Oxidized mAb solution was adjusted to the desired pH by addition of 1M sodium phosphate (monobasic for pH 5.5, dibasic for pH 8.6, or a stock adjusted to pH 7.4) to a final phosphate concentration of 100 mM and mAb concentration of 1.3 mg/mL. Next, 1.15 mL of mAb solution (1.5 mg, 10 nmol, 1 eq) was aliquoted into a vial followed by addition of x-maleimide-PEG-biotin stock solution (2 μL of a 10 mM stock solution in DMAc, 20 nmol, 2 eq). The reaction mixture was briefly vortexed and further incubated for the desired amount of time followed by addition of N-acetly cysteine (10 μL of a 100 mM solution in water, 1 μmol, 100 eq) and further incubation for 15 minutes to quench unreacted maleimide. All conjugation reactions were performed at room temperature (22° C.) under ambient atmosphere. Note that 2 eq x-maleimide-PEG-biotin relative to mAb=1 eq x-maleimide-PEG-biotin relative to free cysteine contained in the mAb. This general procedure was modified as needed to achieve desired reaction stoichiometry (i.e. different maleimide:mAb feeds).
ADC samples were analyzed using an Agilent 6520B Q-TOF mass spectrometer equipped with a RP-HPLC column (Agilent Poroshell 300SB-C3; 5 um, 2.1 mm×75 mm; Part#660750-909). High-performance liquid chromatography (HPLC) parameters were as follows: flow rate, 0.4 ml/min; mobile phase A was 0.1% (v/v) formic acid in HPLC-grade H2O, and mobile phase B was 0.1% (v/v) formic acid in acetonitrile. The column was equilibrated in 90% A/10% B, which was also used to desalt the ADC samples, followed by elution in 40% A/60% B. Mass spec data were collected for 100-3000 m/z, positive polarity, a gas temperature of 350° C., a nebulizer pressure of 48 lb/in^2, and a capillary voltage of 5,000 V. Data were analyzed using vendor-supplied (Agilent v.B.04.00) MassHunter Qualitative Analysis software and peak intensities from deconvoluted spectra were used to derive the relative proportion of reactants and products; and reaction kinetics.
Half-lives were calculated from the derived rate constants using Equation 4 for pseudo-first order reactions (hydrolysis and deconjugation) and Equation 5 for second-order reactions (conjugation): […]
Conjugation data were analyzed in units of molar concentration to determine kinetic constants. Second order rate constants were determined from the slopes of curves generated from plotting 1/[SH] versus time and linear regression analysis.

[5] = pH 7.0; cited from earlier work
[6] = pH 7.0; cited from earlier work; remark: listed apart in the source
[7] = Reactivity of mAb-BCN conjugate with AC4GlcNAz after storage; format: physicochemical
Procedure: N-phenyl-maleimide-PEG-BCN-mAb conjugate (100 μL of 1.3, mg/mL solution in PBS with 0.5 mM EDTA, 0.87 nmol) was combined with AC4GlcNAz (1 μL of 500 mM stock in DMSO, 500 nmol). The reaction solution was incubated at room temperature without stirring for 1 hr at 22° C. For long-term reactivity studies, mAb-BCN conjugate was stored at 4° C. in PBS with 0.5 mM EDTA, pH 7.2 and aliquots were removed and reacted with AC4GlcNAz as described above. Conjugates were analyzed by reduced glycosylated mass spectrometry and conjugation efficiency was determined using equation 1.

[8] = Thiosuccinimide hydrolysis kinetics for PEG-BCN conjugates; format: physicochemical; conditions: mAb-PEG-BCN conjugates at T289C, pH 7.2, 22° C.
Procedure: x-Maleimide-PEG-BCN-mAb conjugates were incubated in buffer solutions and monitored by LC/MS over time to observe thiosuccinimide hydrolysis. Conjugated T289C mAbs were diluted to 0.22 mg/mL with 1×PBS containing 0.5 mM EDTA, pH 7.2 and then dithiothreitol was added (0.5 M stock in water) to achieve a final concentration of 42 mM. Samples were placed into the LC/MS autosampler at 22° C. and injected periodically. Thiosuccinimide hydrolysis was confirmed by addition of 18 amu to the mAb conjugate peak in the mass spectrum. Semi-quantitative analysis of hydrolysis was performed using peak intensities in deconvoluted mass spectra and equation 3, which includes background subtraction using the T=0 measurement. Data was then converted into loss of thiosuccinimide (M) over time and plotted as ln [thiosuccinimide] vs seconds. The slope of the best fit line yielded the pseudo first-order rate constant for thiosuccinimide hydrolysis.

Compound	Psuedo first order rate constant (kobs), maleimide hydrolysis ([4]; pH 7.4, 22° C.)	Psuedo first order rate constant (kobs), maleimide hydrolysis ([4]; pH 8.6, 22° C.)	half-life at 1 mM ([4]; pH 7.4, 22° C.)	half-life at 1 mM ([4]; pH 8.6, 22° C.)	Second order rate constant (k2) (T289C mAb; pH 5.5, 22° C.)	Second order rate constant (k2) (T289C mAb; pH 7.4, 22° C.)	Second order rate constant (k2) (T289C mAb; pH 8.6, 22° C.)	further results
O=C1C=CC(=O)N1c1ccccc1 [N-phenyl maleimide]								kobs, hydrolysis ([1]; pH 7.6, 25° C.): 7e-05 s⁻¹
N-fluorophenyl thiosuccinimide								Max deconjugation + BME ([2]; 1% v/v BME): None; Max deconjugation − BME ([2]; without BME): None; Max deconjugation + BME ([3]; 1% v/v BME): 10%; Max deconjugation − BME ([3]; without BME): None
O=C(CCCCC1SCC2NC(=O)NC21)NCCOCCOCCOCCOCCOCCOCCOCCNC(=O)Cc1ccc(N2C(=O)C=CC2=O)cc1 (centres unmarked) [Phenyl maleimide-PEG-biotin, maleimidophenylacetyl-PEG7-biotin]	8.5e-05 s⁻¹	0.00076 s⁻¹	2.3 h	0.3 h	23.8 M⁻¹ s⁻¹	1300 M⁻¹ s⁻¹	~34000 M⁻¹ s⁻¹	
O=C(CCCCC1SCC2NC(=O)NC21)NCCOCCOCCOCCOCCOCCOCCOCCNC(=O)c1cc(N2C(=O)C=CC2=O)ccc1F (centres unmarked) [F-phenyl maleimide-PEG-biotin, 2-fluoro-5-maleimidophenyl-PEG7-biotin]	0.00017 s⁻¹	0.0019 s⁻¹	1.1 h	0.1 h	55.4 M⁻¹ s⁻¹	4500 M⁻¹ s⁻¹	~39000 M⁻¹ s⁻¹	
CCN1C(=O)C=CC1=O [N-ethyl maleimide]								k2, reaction with β-mercaptoethanol [5]: 710 M⁻¹ s⁻¹; k2, reaction with cysteine [6]: 1620 M⁻¹ s⁻¹
O=C(CCCCC1SCC2NC(=O)NC21)NCCOCCOCCOCCOCCOCCOCCOCCNC(=O)CCN1C(=O)C=CC1=O (centres unmarked) [Alkyl maleimide-PEG-biotin, maleimidoproprionyl-PEG7-biotin, reference compound]	2.3e-05 s⁻¹	0.0002 s⁻¹	7.7 h	1 h	13 M⁻¹ s⁻¹	500 M⁻¹ s⁻¹	~28000 M⁻¹ s⁻¹	
O=C1C=CC(=O)N1 [maleimide]								kobs, hydrolysis ([1]; pH 8.38, 30° C.): 0.000151 s⁻¹
Phenyl thiosuccinimide								Azide conjugation (BCN reactivity) ([7]; 1 day storage at 4° C.): quantitative; Azide conjugation (BCN reactivity) ([7]; 4 days storage at 4° C.): quantitative; Azide conjugation (BCN reactivity) ([7]; 7 days storage at 4° C.): quantitative; Azide conjugation (BCN reactivity) ([7]; 10 days storage at 4° C.): quantitative; Azide conjugation (BCN reactivity) ([7]; 15 days storage at 4° C.): quantitative; Azide conjugation (BCN reactivity) ([7]; 21 days storage at 4° C.): quantitative; time without loss of BCN reactivity ([7]; after conjugation and storage at 4° C.): > 21 days; Psuedo first order rate constant (kobs), thiosuccinimide hydrolysis [8]: 1.9e-05 s⁻¹
2-fluoro-5-maleimidophenyl-PEG7-biotin [F-phenyl maleimide-PEG-biotin]								thiol conjugation is complete in (T289C mAb; pH 8.6): 15 s
